Tests used:
[1] = test system: BALB/c mice, 6.11 Gy γ-radiation TBI; assay: LD70/30 (6.11 Gy) ARS model: survival, life span, body weight, EC-18 10/50/250 mg/kg; type: in vivo, mouse; details: for improvement of survival vs control group / ≥10% Body Weight Loss, % / ≥20% Body Weight Loss, % / Average life span / Median survival / No. of mice that survived/total / Survivability / Survival: 6.11 Gy; for No. of mice that survived/total / Survivability / Survival: 30 days
Procedure: For the experiments to determine survival rate following LD70/30 dose 6.11 Gy of γ-irradiation (TBI, ^60Co, 0.833Gy min-1), mice were grouped 20 (10 males and 10 females) per treatment cohorts; γ-radiation only cohort (positive control), γ-radiation with EC-18 10 mg/kg cohort, γ-radiation with EC-18 50 mg/kg cohort, and γ-radiation with EC-18 250 mg/kg cohort. EC-18 (Enzychem Lifesciences, Jaecheon, Republic of Korea) was suspended in PBS and orally administrated once a day, starting 1 day after irradiation. The positive control group was administrated PBS. The survival and body weight of the animals were recorded daily for 30 days.
All data are presented as the mean t standard deviation (SD). A paired Log rank (Mantel-Cox) test of survival curve was applied to estimate the significance on survival rate and to compare the duration of neutropenia between control and EC-18-treated cohorts. Average life span was calculated as the sum of the life span for all mice/total number of mice. For comparison of the statistical differences of more than two groups, one-way ANOVA test was used. All other statistical analyses were performed using a Student's paired t test and p values<0.05 were considered statistically significant.
The purpose of this study was to investigate the dose-effect of EC-18 on increasing the survival in mice after exposure to γ-radiation to the entire body. Eleven-week-old male and female BALB/c mice (10 females and 10 males; 20 animals per study group) were tested for the LD70/30 study. This study is consisted of 4 experimental groups; γ-radiation only group, and γ-radiation with EC-18 treatment groups at 10, 50, or 250 mg/kg.

SD rat = assay: Single-dose toxicity, SD rat; type: in vivo
Source text: Various toxicology studies have been performed. All studies were GLP-compliant unless otherwise noted.

[2] = EC-18 10 mg/kg oral daily from day 1, 10 mg/kg
[3] = EC-18 50 mg/kg oral daily from day 1, 50 mg/kg
[4] = EC-18 250 mg/kg oral daily from day 1, 250 mg/kg

CCCCC/C=C\C/C=C\CCCCCCCC(=O)OC(COC(C)=O)COC(=O)CCCCCCCCCCCCCCC (centres unmarked) [EC-18, 1-palmitoyl-2-linoleoyl-3-acetylglycerol]
radiation-induced weight loss vs positive control cohort ([1]; 250 mg/kg, from the 18th day after irradiation to the end): significantly reduced
improvement of survival vs control group ([1]; 50 mg/kg daily): 2 fold
improvement of survival vs control group ([1]; 250 mg/kg daily): 4 fold
≥10% Body Weight Loss, % ([1]; EC-18 10 mg/kg): 85%
≥20% Body Weight Loss, % ([1]; EC-18 10 mg/kg): 70%
Average life span [1, 2]: 22.3 days
Median survival [1, 2]: 17 days
No. of mice that survived/total [1, 2]: 4/20
Survivability / Survival [1, 2]: 40%
≥10% Body Weight Loss, % ([1]; EC-18 50 mg/kg): 55%
≥20% Body Weight Loss, % ([1]; EC-18 50 mg/kg): 35%
Average life span [1, 3]: 19.3 days
Median survival [1, 3]: 20 days
No. of mice that survived/total [1, 3]: 8/20
Survivability / Survival [1, 3]: 20%
≥10% Body Weight Loss, % ([1]; EC-18 250 mg/kg): 15%
≥20% Body Weight Loss, % ([1]; EC-18 250 mg/kg): 15%
Average life span [1, 4]: 17.9 days
Median survival [1, 4]: 30 days
No. of mice that survived/total [1, 4]: 16/20
severe weight loss ([1]; two higher doses (50 and 250 mg/kg)): significantly prevented severe weight loss
Approximate lethal dose (SD rat; Oral): dose: >2000 mg/kg
mortality (SD rat; Oral, 0, 2000 mg/kg): No dead animals

From patent US12076307B2, “Compositions for prevention or treatment of acute radiation syndrome and other radiation exposure” (priority 2017, dated 2024)
